Measured values reported in BigSolDB 2.1.

OC[C@@H](O)[C@@H](O)[C@H](O)[C@@H](O)CO
solubility (mole fraction)
Conditions | in THF | in acetone | in acetonitrile | in ethanol | in ethyl acetate | in methanol | in n-butanol | in n-propanol
278.15 K | 0.000363 | 0.000225 | 0.000109 | 0.000598 | 0.000239 | 0.00205 | 0.000449 | 0.000553
283.15 K | 0.000406 | 0.000255 | 0.000129 | 0.000753 | 0.000259 | 0.00275 | 0.000533 | 0.000677
288.15 K | 0.000446 | 0.000287 | 0.000153 | 0.000944 | 0.000289 | 0.00351 | 0.000627 | 0.000838
293.15 K | 0.000489 | 0.000328 | 0.000178 | 0.00117 | 0.000317 | 0.00461 | 0.000748 | 0.00102
298.15 K | 0.000544 | 0.000382 | 0.000208 | 0.00146 | 0.000354 | 0.00585 | 0.000895 | 0.00124
303.15 K | 0.000597 | 0.000436 | 0.000249 | 0.00181 | 0.000392 | 0.00739 | 0.00106 | 0.00152
